Test results as given in patent US20160324992A1, “IDENTIFICATION AND TREATMENT OF VULNERABLE PLAQUES” (OTTAWA HEART INSTITUTE RESEARCH CORPORATION, priority 2015, published 2016).
Entries after “also recorded” stand apart in the source; their conditions may differ.

Columns and labels:
Serum stability testing = type: in vitro ADME; conditions: 37° C., 24 hours, HPLC
Procedure: Serum stability testing of 7-^123I-O-Nec-1. Serum stability testing was carried out by mixing 25 μL of 7-^123I-O-Nec-1 (5) and 100 μL of rat serum at 37 ° C. for 24 hours. […] cold EtOH was added afterwards, and the mixture was centrifuged at 2500 ×g at 4° C. for 15 minutes to precipitate proteins. The supernatant was injected into HPLC.

[1] = Biodistribution in C57BL/6 mice; type: in vivo; conditions: for organ uptake: Blood / organ uptake: Brain / organ uptake: Femur / organ uptake: Heart / organ uptake: Intestine / organ uptake: Kidney / organ uptake: Liver / organ uptake: Lung / organ uptake: Muscle / organ uptake: Ovaries/testis / organ uptake: Spleen / organ uptake: Stomach / organ uptake: Thyroid / organ uptake: Urine: female C57BL/6 mice, i.v. 5.3-6.7 MBq, mean ± SD, n = 3
Procedure: (§1) Biodistribution studies were carried out on C57BL/6 mice weighing 19-21 g and Sprague Dawley rats weighing 400-560 g (Charles River Laboratories, Mass., USA). On the day of experimentation, the animals were anesthetized and maintained under isofluorane during the injection. A tail vein catheter was inserted, 5.3-6.7 MBq of 7-^123I-O-Nec-1 was administered to the mice and 3.1-3.3 MBq of 7-^123I-O-Nec-1 was injected into the rats. The animals were sacrificed at 1 hr or 2 hr post injection (p.i.) (n=3 per group). The heart, liver, kidney, muscle, femur, spleen, blood, brain, intestine, lung, stomach, urine/bladder, ovaries/testes and thyroid were extracted, weighed and analyzed for total gamma counts (Wizard 2 2480 Automatic Gamma Counter, Perkin Elmer). The tissue uptake was decay corrected, and the percentage of injected dose per gram (% ID/g) was calculated.

[2] = Biodistribution in Sprague-Dawley rats; type: in vivo
Procedure: as §1

[3] = tested on: atherosclerotic lesions in ApoE−/− mice; test: Ex vivo autoradiography of aorta, en face and Oil Red O comparison; type: in vivo, mouse; conditions: for localization of the tracer in the aorta (in words): ApoE−/− mice with established lesions, 2 hours after i.v. injection, en face aortic arch; for correlation between lesion area measured by tracer autoradiography and ORO / en face (in words): ApoE−/− mice, ex vivo
Text: Radiochemistry and ex vivo autoradiography study with ApoE^−/− mice. The tracer ^123I-Nec-1 (7-^123I-Nec-1) was synthesized by a Cu(I) catalyzed direct halogen exchange reaction with the precursor 7-Br-Nec-1 and Na^123I. Eight week-old female apolipoprotein E knockout (Apo E^−/−) mice were purchased from Charles River Laboratories and fed either a chow or western diet (TD.10885, Harlan Laboratories) for 2 months (total n=6 mice). 7-^123I-O-Nec-1 (37.0-55.5 MBq) was administrated intravenously into the mice under anesthetic. After 2 hr, the mice were euthanized and perfused with PBS followed by 10% formalin via left ventricle cannulation. Aorta was dissected from heart at the base using a dissecting microscope following removal of surrounding fat and connective tissue. En face specimens were immediately exposed to super resolution phosphor screens in an autoradiography cassette. After overnight exposure at room temperature, the screens were scanned with a Cyclone Phosphor Imager (Perkin Elmer, Downers Grove, Ill.). Images were analyzed using OptiQuant™ 5.0 software. The regions of interest (ROI) were drawn around the lesions on the aortic arch, and the counts in Digital Light Unit (DLU) and surface areas in mm^2 were measured. The DLU was converted to activity in μCi using a set of calibration standards with known activities, which were exposed and scanned on the same screen used for the aorta samples, as previously described (Zhao et al, 2007; Matter et al., 2006). The percentage injected dose (% ID) was calculated from dividing the activity (pCi) of the lesion by the injected activity. Activity density in % ID/m^2 was calculated and normalized by animal body weight to get % ID×kg/m^2. The areas of the lesions and the whole aortic arch in mm^2 were also recorded using the OptiQuant™ 5.0 software, and the percentage of lesion within the area of the aorta vessel wall was calculated.
Ex vivo autoradiography study with ApoE^−/− mice. Eight week-old female apolipoprotein E knockout (Apo E^−/−) mice were purchased from Charles River Laboratories (Charles River, Canada) and fed either a chow or western diet (TD.10885, Harlan Laboratories) for 2 months (n=3 per group). […] 7-^123I-O-Nec-1 (37.0-55.5 MBq) was administrated intravenously into the mice under anesthetic. After 2 hr, the mice were euthanized in a CO2 chamber. Using a Gilson Minipuls 2 peristaltic pump, the mice were perfused with 20 mL phosphate buffered saline (PBS) followed by 10 mL of 10% formalin via left ventricle cannulation. Perfusate was drained from a cut within the right atrium. Aorta was dissected from heart at the base using a dissecting microscope following removal of surrounding fat and connective tissue. For en face experiments aortic tissues were flattened by a longitudinal cut through one side of the aortic wall cutting through the carotids and the innominant artery until the aorta was split forming a Y-shaped structure.
The uptake and distribution of the tracer on aortic tissue was studied using digital autoradiography method. En face specimens were immediately exposed to super resolution phosphor screens in a Fisher Biotech autoradiography cassette. After overnight exposure at room temperature, the screens were scanned with a Cyclone Phosphor Imager (Perkin Elmer, Downers Grove, Ill.). Images were analyzed using OptiQuant™ 5.0 software. The regions of interest (ROI) were drawn around the lesions on the aortic arch, and the counts in Digital Light Unit (DLU) and surface areas in mm^2 were measured. The DLU was converted to activity in pCi using a set of calibration standards with known activities, which were exposed and scanned on the same screen used for the aorta samples. The percentage injected dose (% ID) was calculated from dividing the activity (pCi) of the lesion by the injected activity. Activity density in % ID/m^2 was calculated and normalized by animal body weight to get % ID×kg/m^2. […]

[4] = male Sprague-Dawley rats, 2 hr p.i., i.v. 3.1-3.3 MBq, mean ± SD, n = 3

CN1C(=O)NC(Cc2c[nH]c3c([123I])cccc23)C1=O (centres unmarked) [7-^123I-O-Nec-1, 5-((7-lodo (^123I)-1H-indol-3-yl)methyl)-3-methylimidazolidine-2,4-dione]
stability in rat serum (Serum stability testing): stable in serum, no de-iodination or degradation was found; also recorded: stable in vitro in serum | clearance of the tracer (in words) ([1]; biodistribution in C57BL/6 mice, i.v.): fast renal and liver/gastrointestinal clearance; also recorded: excreted rapidly from the renal system | organ uptake: Blood ([1]; 1 hr p.i.): 3.149 ± 0.547 % ID/g | organ uptake: Brain ([1]; 1 hr p.i.): 0.429 ± 0.170 % ID/g | organ uptake: Femur ([1]; 1 hr p.i.): 1.167 ± 0.214 % ID/g | organ uptake: Heart ([1]; 1 hr p.i.): 1.868 ± 0.519 % ID/g | organ uptake: Intestine ([1]; 1 hr p.i.): 16.578 ± 1.224 % ID/g | organ uptake: Kidney ([1]; 1 hr p.i.): 4.296 ± 1.084 % ID/g | organ uptake: Liver ([1]; 1 hr p.i.): 4.030 ± 0.824 % ID/g | organ uptake: Lung ([1]; 1 hr p.i.): 3.248 ± 0.788 % ID/g | organ uptake: Muscle ([1]; 1 hr p.i.): 0.859 ± 0.278 % ID/g | organ uptake: Ovaries/testis ([1]; 1 hr p.i.): 2.349 ± 0.570 % ID/g | organ uptake: Spleen ([1]; 1 hr p.i.): 2.657 ± 0.390 % ID/g | organ uptake: Stomach ([1]; 1 hr p.i.): 19.294 ± 2.556 % ID/g | organ uptake: Thyroid ([1]; 1 hr p.i.): 7.344 ± 1.469 % ID/g | organ uptake: Urine ([1]; 1 hr p.i.): 103.153 ± 41.005 % ID/g | organ uptake: Blood ([1]; 2 hr p.i.): 3.136 ± 1.024 % ID/g | organ uptake: Brain ([1]; 2 hr p.i.): 0.640 ± 0.847 % ID/g | organ uptake: Femur ([1]; 2 hr p.i.): 1.189 ± 0.205 % ID/g | organ uptake: Heart ([1]; 2 hr p.i.): 1.405 ± 0.484 % ID/g | organ uptake: Intestine ([1]; 2 hr p.i.): 25.573 ± 19.206 % ID/g | organ uptake: Kidney ([1]; 2 hr p.i.): 3.841 ± 0.429 % ID/g | organ uptake: Liver ([1]; 2 hr p.i.): 2.562 ± 0.916 % ID/g | organ uptake: Lung ([1]; 2 hr p.i.): 2.975 ± 1.025 % ID/g | organ uptake: Muscle ([1]; 2 hr p.i.): 0.723 ± 0.307 % ID/g | organ uptake: Ovaries/testis ([1]; 2 hr p.i.): 1.462 ± 0.184 % ID/g | organ uptake: Spleen ([1]; 2 hr p.i.): 2.173 ± 0.728 % ID/g | organ uptake: Stomach ([1]; 2 hr p.i.): 25.711 ± 4.877 % ID/g | organ uptake: Thyroid ([1]; 2 hr p.i.): 18.387 ± 14.764 % ID/g | organ uptake: Urine ([1]; 2 hr p.i.): 80.627 ± 12.850 % ID/g | in vivo de-iodination (in words) ([1]; normal C57BL/6 mice, thyroid and stomach uptake 1 hr to 2 hr p.i.): de-iodination over time; also recorded: some degree of in vivo de-iodination; also recorded: limited in vivo de-iodination | clearance of the tracer (in words) ([2]; biodistribution in Sprague-Dawley rats, i.v., 2 hr p.i.): fast renal and liver/gastrointestinal clearance; also recorded: excreted rapidly from the renal system | organ uptake: Blood [2, 4]: 0.153 ± 0.031 % ID/g | organ uptake: Brain [2, 4]: 0.023 ± 0.004 % ID/g | organ uptake: Femur [2, 4]: 0.052 ± 0.009 % ID/g | organ uptake: Heart [2, 4]: 0.098 ± 0.007 % ID/g | organ uptake: Intestine [2, 4]: 0.867 ± 0.062 % ID/g | organ uptake: Kidney [2, 4]: 0.236 ± 0.016 % ID/g | organ uptake: Liver [2, 4]: 0.226 ± 0.028 % ID/g | organ uptake: Lung [2, 4]: 0.143 ± 0.013 % ID/g | organ uptake: Muscle [2, 4]: 0.048 ± 0.005 % ID/g | organ uptake: Ovaries/testis [2, 4]: 0.089 ± 0.009 % ID/g | organ uptake: Spleen [2, 4]: 0.106 ± 0.009 % ID/g | organ uptake: Stomach [2, 4]: 1.685 ± 0.395 % ID/g | organ uptake: Thyroid [2, 4]: 1.407 ± 0.189 % ID/g | organ uptake: Urine [2, 4]: 2.513 ± 0.282 % ID/g | in vivo de-iodination (in words) ([2]; normal Sprague-Dawley rats): some degree of in vivo de-iodination | aortic lesion uptake in HFD-fed ApoE−/− mice versus chow-fed ApoE−/− and control mice (in words) ([3]; 4 month old mice, 37.0-55.5 MBq i.v., 2 hr, n=3 per group): significantly higher tracer uptake | lesion uptake in chow-fed ApoE−/− mice versus aortic arch uptake of control mice (in words) ([3]; 4 month old mice, 2 hr p.i., p=0.3): similar; also recorded: not statistically significant | localization of the tracer in the aorta (in words) ([3]; listed as 123I-Nec-1): primarily localized to areas of plaque accumulation | localization of the tracer in the aorta (in words) ([3]; listed as 123INec-1): specifically localizes to advanced atherosclerotic lesion areas | correlation between lesion area measured by tracer autoradiography and ORO / en face (in words) [3]: good correlation | correlation between lesion area measured by tracer autoradiography and ORO / en face (in words) ([3]; listed as 123I-Nec-1): significant correlation
